Test results reported in BigSolDB 2.1.

Cc1ccc2cc(Br)ccc2n1
solubility (mole fraction)
Conditions | in DMF | in acetone | in acetonitrile | in ethanol | in ethyl acetate | in isopropanol | in methanol | in n-propanol | in toluene | in water
278.15 K | 0.00585 | 0.00678 | 0.00648 | 0.000938 | 0.0072 | 0.00191 | 0.000232 | 0.00218 | 0.00817 | 6.88e-06
283.15 K | 0.00675 | 0.00793 | 0.00743 | 0.00112 | 0.00844 | 0.00229 | 0.000276 | 0.00261 | 0.00953 | 8.1e-06
288.15 K | 0.00765 | 0.00926 | 0.00855 | 0.00131 | 0.0101 | 0.00274 | 0.000319 | 0.00317 | 0.0111 | 9.62e-06
293.15 K | 0.00869 | 0.0108 | 0.00974 | 0.00151 | 0.0117 | 0.0032 | 0.000372 | 0.00371 | 0.0132 | 1.13e-05
298.15 K | 0.00994 | 0.0126 | 0.0112 | 0.00179 | 0.0136 | 0.00375 | 0.000444 | 0.00438 | 0.0155 | 1.33e-05
303.15 K | 0.0116 | 0.0149 | 0.0131 | 0.00213 | 0.0159 | 0.00442 | 0.000525 | 0.00513 | 0.018 | 1.54e-05
308.15 K | 0.0137 | 0.0175 | 0.0154 | 0.00249 | 0.0187 | 0.00518 | 0.000613 | 0.00593 | 0.0212 | 1.82e-05
313.15 K | 0.0161 | 0.0204 | 0.0182 | 0.00289 | 0.0218 | 0.00608 | 0.000719 | 0.00687 | 0.0248 | 2.13e-05
318.15 K | 0.0188 | 0.0237 | 0.0213 | 0.00334 | 0.0255 | 0.00703 | 0.000849 | 0.0079 | 0.0286 | 2.48e-05
323.15 K | 0.0222 | 0.0276 | 0.0253 | 0.0039 | 0.0299 | 0.00812 | 0.000998 | 0.00914 | 0.0332 | 2.89e-05
